According to patent US20090088482A1, “Compositions and Methods For Treating Heart Failure” (The Trustees Of Columbia University In The City New York, priority 2003, published 2009):
Where a name gives a salt, the structure may show the parent alone.

Tests used:
[1] = Cardiopulmonary exercise testing in a patient with NYHA Class III CHF treated with clenbuterol; type: in vivo, human; details: 40 mcg b.i.d., six weeks
Method: A patient with New York Heart Association Class III CHF with an ICD, currently taking a heart failure medical regimen, including carvedilol (a non-selective beta-blocking agent), lisinopril (an ACE inhibitor), digoxin and spiranolactone, has shortness of breath on moderate exertion and a peak oxygen consumption of 14 ml/kg/min during cardiopulmonary exercising testing.

[2] = CHF patients, 8 mg b.i.d., three weeks; cited from earlier work

| Structure (SMILES) | tolerability of dose [1] | quadriceps bulk, muscle strength or fatigue, exercise capacity, symptom assessment scores [2] |
| --- | --- | --- |
| CC(C)(C)NCC(O)c1cc(Cl)c(N)c(Cl)c1 (centres unmarked) [clenbuterol hydrochloride, Clenbuterol hydrochloride] | well-tolerated |  |
| CC(C)(C)NCC(O)c1ccc(O)c(CO)c1 (centres unmarked) [salbutamol] |  | no change |
